From paper PMC9005681, “Use of AD Informer Set compounds to explore validity of novel targets in Alzheimer's disease pathology” (Alzheimer's & Dementia : Translational Research & Clinical …, 2022)
“And” between values parts separate entries of the source, which are not always exact repeats. Identical values can stand only once.

Tests used:
Assay in all cases: PDSP GPCR panel primary binding assays at 10 μM
[1] = system: cloned human or rodent CNS receptors, channels, and transporters (PDSP panel); settings: primary assay; for Mean %: mean inhibition; for Inhibition 1: replicate 1; for Inhibition 2: replicate 2; for Inhibition 3: replicate 3; for Inhibition 4: replicate 4
Procedure, shortened: (§1)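 PDSP panel of 46–47 cloned human or rodent CNS receptors, channels and transporters; radioligand displacement by compound at 10 μM, in quadruplicate. Where average displacement exceeded 50%, secondary binding followed as 11-point dose-response in triplicate (none for H3, PBR or GABAA).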

[2] = molecular target: T1, cloned human or rodent CNS receptors, channels, and transporters (PDSP panel) (Homo sapiens, UniProt P28335); settings: 5-HT2C, primary assay; for Mean %: mean inhibition; for Inhibition 1: replicate 1; for Inhibition 2: replicate 2; for Inhibition 3: replicate 3; for Inhibition 4: replicate 4
T1 construct: expressed in transfected cells
T1 sequence (P28335 33-458): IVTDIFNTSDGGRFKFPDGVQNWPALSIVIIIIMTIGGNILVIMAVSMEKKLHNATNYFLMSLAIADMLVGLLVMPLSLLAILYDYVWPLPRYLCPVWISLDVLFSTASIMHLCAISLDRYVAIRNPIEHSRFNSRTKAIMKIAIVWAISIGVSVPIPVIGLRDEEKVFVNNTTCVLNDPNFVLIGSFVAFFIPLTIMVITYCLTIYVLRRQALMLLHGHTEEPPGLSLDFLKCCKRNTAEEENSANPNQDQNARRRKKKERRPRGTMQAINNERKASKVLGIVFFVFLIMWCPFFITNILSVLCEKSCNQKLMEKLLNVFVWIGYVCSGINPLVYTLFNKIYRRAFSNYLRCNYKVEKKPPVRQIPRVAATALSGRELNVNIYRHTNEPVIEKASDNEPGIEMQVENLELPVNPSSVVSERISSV
Procedure, shortened: as §1

[3] = molecular target: T2, cloned human or rodent CNS receptors, channels, and transporters (PDSP panel) (Homo sapiens, UniProt Q01959); settings: DAT, primary assay; for Mean %: mean inhibition; for Inhibition 1: replicate 1; for Inhibition 2: replicate 2; for Inhibition 3: replicate 3; for Inhibition 4: replicate 4
T2 construct: expressed in transfected cells
Procedure, shortened: as §1

[4] = molecular target: T3, cloned human or rodent CNS receptors, channels, and transporters (PDSP panel) (Homo sapiens, UniProt P14416); settings: D2, primary assay; for Mean %: mean inhibition; for Inhibition 1: replicate 1; for Inhibition 2: replicate 2; for Inhibition 3: replicate 3; for Inhibition 4: replicate 4
T3 construct: expressed in transfected cells
Procedure, shortened: as §1

[5] = molecular target: T4, cloned human or rodent CNS receptors, channels, and transporters (PDSP panel) (Homo sapiens, UniProt P35462); settings: D3, primary assay; for Mean %: mean inhibition; for Inhibition 1: replicate 1; for Inhibition 2: replicate 2; for Inhibition 3: replicate 3; for Inhibition 4: replicate 4
T4 construct: expressed in transfected cells
Procedure, shortened: as §1

[6] = molecular target: T5, cloned human or rodent CNS receptors, channels, and transporters (PDSP panel) (Homo sapiens, UniProt P11229); settings: M1, primary assay; for Mean %: mean inhibition; for Inhibition 1: replicate 1; for Inhibition 2: replicate 2; for Inhibition 3: replicate 3; for Inhibition 4: replicate 4
T5 construct: expressed in transfected cells
T5 sequence (P11229 1-460): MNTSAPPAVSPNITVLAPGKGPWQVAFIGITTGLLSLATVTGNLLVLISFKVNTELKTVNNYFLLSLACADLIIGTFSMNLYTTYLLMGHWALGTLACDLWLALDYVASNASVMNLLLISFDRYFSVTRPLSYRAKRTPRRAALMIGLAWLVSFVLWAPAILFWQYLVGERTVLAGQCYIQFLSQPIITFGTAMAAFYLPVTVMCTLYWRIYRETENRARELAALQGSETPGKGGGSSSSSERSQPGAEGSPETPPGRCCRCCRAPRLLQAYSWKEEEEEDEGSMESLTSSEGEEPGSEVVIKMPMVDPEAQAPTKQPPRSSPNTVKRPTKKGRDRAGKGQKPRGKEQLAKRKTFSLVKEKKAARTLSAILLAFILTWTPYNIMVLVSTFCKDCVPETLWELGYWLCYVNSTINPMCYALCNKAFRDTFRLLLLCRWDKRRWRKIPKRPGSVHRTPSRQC
Procedure, shortened: as §1

T2 sequence (Q01959 whole entry): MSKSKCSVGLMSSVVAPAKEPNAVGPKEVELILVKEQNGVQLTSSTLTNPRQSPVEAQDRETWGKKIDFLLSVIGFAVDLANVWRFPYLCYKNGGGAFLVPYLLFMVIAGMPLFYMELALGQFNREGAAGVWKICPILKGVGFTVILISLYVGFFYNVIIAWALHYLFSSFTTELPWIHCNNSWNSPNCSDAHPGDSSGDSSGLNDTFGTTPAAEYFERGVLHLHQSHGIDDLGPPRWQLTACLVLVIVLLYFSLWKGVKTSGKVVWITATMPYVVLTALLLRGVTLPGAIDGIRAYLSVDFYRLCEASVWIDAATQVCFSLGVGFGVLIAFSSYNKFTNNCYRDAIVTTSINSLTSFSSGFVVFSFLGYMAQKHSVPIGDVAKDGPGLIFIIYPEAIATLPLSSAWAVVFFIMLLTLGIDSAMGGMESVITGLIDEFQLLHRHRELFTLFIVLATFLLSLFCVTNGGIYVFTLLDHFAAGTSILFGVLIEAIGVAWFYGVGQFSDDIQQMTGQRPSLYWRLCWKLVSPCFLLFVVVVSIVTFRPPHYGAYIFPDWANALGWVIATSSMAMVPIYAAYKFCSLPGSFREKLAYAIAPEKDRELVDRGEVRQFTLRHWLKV
T4 sequence (P35462 whole entry): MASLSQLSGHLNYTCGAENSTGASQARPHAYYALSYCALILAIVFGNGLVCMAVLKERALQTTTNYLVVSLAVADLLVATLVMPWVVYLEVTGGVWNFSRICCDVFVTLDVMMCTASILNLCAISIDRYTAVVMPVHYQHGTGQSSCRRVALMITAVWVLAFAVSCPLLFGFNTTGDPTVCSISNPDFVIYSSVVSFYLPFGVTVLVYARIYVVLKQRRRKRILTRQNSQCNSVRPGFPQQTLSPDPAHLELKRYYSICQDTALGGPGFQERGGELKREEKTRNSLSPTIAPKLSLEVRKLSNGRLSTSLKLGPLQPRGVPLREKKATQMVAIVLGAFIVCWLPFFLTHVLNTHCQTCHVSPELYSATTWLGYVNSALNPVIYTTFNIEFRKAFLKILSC
T3 sequence (P14416 whole entry): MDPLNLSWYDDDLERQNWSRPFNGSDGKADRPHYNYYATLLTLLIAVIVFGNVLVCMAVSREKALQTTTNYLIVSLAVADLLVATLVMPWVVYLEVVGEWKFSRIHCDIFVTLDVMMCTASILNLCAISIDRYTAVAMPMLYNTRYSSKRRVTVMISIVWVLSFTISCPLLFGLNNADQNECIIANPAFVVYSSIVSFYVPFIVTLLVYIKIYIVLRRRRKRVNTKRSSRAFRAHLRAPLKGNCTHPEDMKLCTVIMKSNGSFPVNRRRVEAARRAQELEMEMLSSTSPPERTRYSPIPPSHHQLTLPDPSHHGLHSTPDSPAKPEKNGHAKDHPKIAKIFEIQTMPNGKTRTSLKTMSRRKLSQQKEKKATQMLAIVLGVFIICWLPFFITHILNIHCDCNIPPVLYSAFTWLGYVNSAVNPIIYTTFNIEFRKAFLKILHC

CNc1nc(C)nc(N[C@H]2CCC[C@@H](C(=O)NCc3ccc(C#N)cc3C(F)(F)F)C2)n1 [UNC10302679A, GSK2256294A]
Mean % ([1]; Alpha1A): -0.8%
Inhibition 1 ([1]; Alpha1A): -1.03%
Inhibition 2 ([1]; Alpha1A): -7.95%
Inhibition 3 ([1]; Alpha1A): -14.5%
Inhibition 4 ([1]; Alpha1A): 20.29%
Mean % ([1]; Alpha2A): -5.79%
Inhibition 1 ([1]; Alpha2A): -3.6%
Inhibition 2 ([1]; Alpha2A): -9.38%
Inhibition 3 ([1]; Alpha2A): -7.24%
Inhibition 4 ([1]; Alpha2A): -2.95%
Mean % ([1]; Alpha2C): 1.02%
Inhibition 1 ([1]; Alpha2C): 11.32%
Inhibition 2 ([1]; Alpha2C): 1.35%
Inhibition 3 ([1]; Alpha2C): -11.52%
Inhibition 4 ([1]; Alpha2C): 2.93%
Mean % ([1]; BZP Rat Brain Site): 4.01%
Inhibition 1 ([1]; BZP Rat Brain Site): 13.82%
Inhibition 2 ([1]; BZP Rat Brain Site): 5.95%
Inhibition 3 ([1]; BZP Rat Brain Site): -2.77%
Inhibition 4 ([1]; BZP Rat Brain Site): -0.97%
Mean % ([1]; DOR): 1.65%
Inhibition 1 ([1]; DOR): 14.12%
Inhibition 2 ([1]; DOR): -1.97%
Inhibition 3 ([1]; DOR): -1.78%
Inhibition 4 ([1]; DOR): -3.77%
Mean % ([1]; GABAA): -6.38% and -12.1%
Inhibition 1 ([1]; GABAA): -3.42% and -8.72%
Inhibition 2 ([1]; GABAA): -12.29% and -15.74%
Inhibition 3 ([1]; GABAA): -18.95% and -24.39%
Inhibition 4 ([1]; GABAA): 9.15% and 0.47%
Mean % ([1]; H3): 13.41%
Inhibition 1 ([1]; H3): 10.42%
Inhibition 2 ([1]; H3): 5.17%
Inhibition 3 ([1]; H3): 19.16%
Inhibition 4 ([1]; H3): 18.87%
Mean % ([1]; H4): -11.7%
Inhibition 1 ([1]; H4): -16.74%
Inhibition 2 ([1]; H4): -15.78%
Inhibition 3 ([1]; H4): -13.62%
Inhibition 4 ([1]; H4): -0.66%
Mean % ([1]; Sigma 1): 4.17%
Mean % ([1]; Sigma 2): -5.66%
Mean % [2]: -14.6%
Inhibition 1 [2]: 12.76%
Inhibition 2 [2]: -11.29%
Inhibition 3 [2]: -33.87%
Inhibition 4 [2]: -26.01%
Mean % [3]: 54.13%
Inhibition 1 [3]: 56.61%
Inhibition 2 [3]: 53.37%
Inhibition 3 [3]: 54.99%
Inhibition 4 [3]: 51.53%
Mean % [4]: -7.22%
Inhibition 1 [4]: 3.31%
Inhibition 2 [4]: -5.21%
Inhibition 3 [4]: -10.66%
Inhibition 4 [4]: -16.31%
Mean % [5]: -12.51%
Inhibition 1 [5]: -10.05%
Inhibition 2 [5]: -18.34%
Inhibition 3 [5]: -11.4%
Inhibition 4 [5]: -10.24%
Mean % [6]: -5.74%
Inhibition 1 [6]: 6.11%
Inhibition 2 [6]: -4.99%
Inhibition 3 [6]: -11.01%
Inhibition 4 [6]: -13.08%

MDL 28170 [UNC10302675A]
Mean % ([1]; Alpha1A): 5.14%
Inhibition 1 ([1]; Alpha1A): 14.68%
Inhibition 2 ([1]; Alpha1A): -1.03%
Inhibition 3 ([1]; Alpha1A): -8.14%
Inhibition 4 ([1]; Alpha1A): 15.06%
Mean % ([1]; Alpha2A): -0.83%
Inhibition 1 ([1]; Alpha2A): 3.33%
Inhibition 2 ([1]; Alpha2A): -2.81%
Inhibition 3 ([1]; Alpha2A): -6.74%
Inhibition 4 ([1]; Alpha2A): 2.9%
Mean % ([1]; Alpha2C): -3.61%
Inhibition 1 ([1]; Alpha2C): -3.7%
Inhibition 2 ([1]; Alpha2C): -0.8%
Inhibition 3 ([1]; Alpha2C): -1.62%
Inhibition 4 ([1]; Alpha2C): -8.31%
Mean % ([1]; BZP Rat Brain Site): 7.23%
Inhibition 1 ([1]; BZP Rat Brain Site): 18.74%
Inhibition 2 ([1]; BZP Rat Brain Site): 4.91%
Inhibition 3 ([1]; BZP Rat Brain Site): -1.16%
Inhibition 4 ([1]; BZP Rat Brain Site): 6.42%
Mean % ([1]; DOR): -10.37%
Inhibition 1 ([1]; DOR): -5.94%
Inhibition 2 ([1]; DOR): -12.45%
Inhibition 3 ([1]; DOR): -15.16%
Inhibition 4 ([1]; DOR): -7.93%
Inhibition 1 ([1]; GABAA): 16.54% and -28.18%
Inhibition 2 ([1]; GABAA): 2.5% and -11.42%
Inhibition 3 ([1]; GABAA): 1.02% and 0%
Inhibition 4 ([1]; GABAA): 29.11% and -5.47%
Mean % ([1]; H3): 9.84%
Inhibition 1 ([1]; H3): 9.54%
Inhibition 2 ([1]; H3): 0.8%
Inhibition 3 ([1]; H3): 7.8%
Inhibition 4 ([1]; H3): 21.2%
Mean % ([1]; H4): -7.26%
Inhibition 1 ([1]; H4): -26.58%
Inhibition 2 ([1]; H4): 0.78%
Inhibition 3 ([1]; H4): -5.94%
Inhibition 4 ([1]; H4): 2.7%
Mean % ([1]; Sigma 1): 5.78%
Mean % ([1]; Sigma 2): 26.55%
Mean % [2]: -9.69%
Inhibition 1 [2]: -16.2%
Inhibition 2 [2]: -15.21%
Inhibition 3 [2]: 9.82%
Inhibition 4 [2]: -17.18%
Mean % [3]: 35.54%
Inhibition 1 [3]: 41.81%
Inhibition 2 [3]: 27.44%
Inhibition 3 [3]: 32.41%
Inhibition 4 [3]: 40.51%
Mean % [4]: -18.47%
Inhibition 1 [4]: -14.97%
Inhibition 2 [4]: -19.19%
Inhibition 3 [4]: -16%
Inhibition 4 [4]: -23.71%
Mean % [5]: -4.37%
Inhibition 1 [5]: 0.36%
Inhibition 2 [5]: 5.37%
Inhibition 3 [5]: -17.38%
Inhibition 4 [5]: -5.81%
Mean % [6]: -11.2%
Inhibition 1 [6]: -2.73%
Inhibition 2 [6]: -6.87%
Inhibition 3 [6]: -20.6%
Inhibition 4 [6]: -14.58%
